Measured values: US8173705B2, “Agent for alleviating wrinkles” (Shiseido Company Ltd., priority 2007, dated 2012)

System: SCCA 1 (Serpin b3) expression
Experiment: Effect of suppressing SCCA 1 expression (RT-PCR in human normal keratinocytes)
Type: cell-based
Conditions: incubated 24 hours, G3PDH internal standard, compared with control sample
Experimental: Human normal keratinocytes (manufactured by KURABO INDUSTRIES LTD.) were incubated with culture medium, Epilife (manufactured by KURABO INDUSTRIES LTD.) For medium replacement, the medium was subcultured for three times a week. The human normal keratinocytes were seeded on 3.5 cm dishes. In the phase of 60 to 70% confluent, 200 μM and 1 mM of N-benzenesulfonyl-gamma-aminobutyric were respectively added to the dishes, which were incubated for 24 hours. Then RNAs were extracted with use of Isogen, and SCCA 1 (Serpin b3) expression levels were measured by RT-PCR. Additionally, as a control sample, the same test except no addition of gamma-aminobutyric acid derivatives was conducted. G3PDH was used as internal standard. The primers used for PCR were as follows.

SMILES: O=C(O)CCCNS(=O)(=O)c1ccccc1 [N-benzenesulfonyl-gamma-aminobutyric acid]
- Serpin b3 (SCCA 1) expression level (200 μM added): significantly decreased
- Serpin b3 (SCCA 1) expression level (1 mM added): significantly decreased
